# Test results published in PMC6274398, “Three Novel Triterpenoids from Taraxacum officinale Roots” (Molecules, 2016).
# Like-named read-outs stand apart in the source and are kept apart here.
# Columns and labels:
# [1] = test system: NO production in RAW 264.7 mouse macrophages stimulated by lipopolysaccharide (LPS); assay: Inhibitory assay of NO production (Griess) in LPS-stimulated RAW264.7 cells; format: cell-based; conditions: for NO inhibitory activity (in words): 1–30 μM tested; for IC50 / activity at 1 µM / activity at 3 µM / activity at 10 µM / activity at 30 µM: Mus musculus; for IC50: read-out: IC50 (inhibition of NO production); for activity at 1 µM / activity at 3 µM / activity at 10 µM / activity at 30 µM: read-out: Produced NO %
# Experimental: An inhibitory assay of NO production was examined in accordance with a previously reported method with minor modifications. Briefly, RAW264.7 cells (5 × 10^4 cells in 100 μL) were seeded on a 96-well microplate and incubated for 24 h. DMEM-containing test samples (100 μL total volume, final concentration of 30, 10, 3, or 1 μM) dissolved in DMSO (final concentration 0.2%) and LPS (final concentration of 5 μg/mL) was added. After being treated for 24 h, the supernatant of the culture medium was transferred to another 96-well microplate, and 50 μL of 0.15% N-(1-naphtyl)ethylenediamine in H2O and 1.5% sulfanilamide in 7.5% phosphoric acid were then added. After being incubated for 30 min, absorbance in each well was read at 570 nm using a microplate reader. The optical density of vehicle control cells was assumed to be 100%
# RAW264.7 cells = assay: RAW264.7 cell proliferation / cell viability (MTT); format: cell-based, mouse; conditions: for Cell Viavility %: 24 h, MTT, vs DMSO (100%), mean ± S.E., n=4
# Experimental: RAW264.7 cell proliferation was examined in accordance with a previously reported method. Briefly, RAW264.7 cells (5 × 10^4 cells in 100 μL) were seeded on a 96-well microplate and incubated for 24 h. Dulbecco's modified eagle's medium (DMEM)-containing test samples (100 μL total volume, final concentration of 30, 10, 3, or 1 μM) dissolved in dimethyl sulfoxide (DMSO, final concentration 0.2%) was added. After being treated for 24 h, thiazolyl blue tetrazolium bromide (MTT) solution was added. After a 3-h incubation, 20% sodium dodecyl sulfate in 0.1 M HCl was added to dissolve the formazan produced in the cells. Absorbance in each well was read at 570 nm using a microplate reader. The optical density of vehicle control cells was assumed to be 100%.
# [2] = RAW264.7, 1 μM, LPS 5 μg/mL, 24 h, vs DMSO (100%), mean ± S.E., n=4
# [3] = RAW264.7, 3 μM, LPS 5 μg/mL, 24 h, vs DMSO (100%), mean ± S.E., n=4
# [4] = RAW264.7, 10 μM, LPS 5 μg/mL, 24 h, vs DMSO (100%), mean ± S.E., n=4
# [5] = RAW264.7, 30 μM, LPS 5 μg/mL, 24 h, vs DMSO (100%), mean ± S.E., n=4
"IC50 ([1]; LPS-stimulated RAW264.7, 24 h) [µM]",SMILES,NO inhibitory activity (in words) [1],"IC50 ([1]; RAW264.7, 24 h) [µM]","activity at 1 µM ([1]; RAW264.7, 24 h) [%]","activity at 3 µM ([1]; RAW264.7, 24 h) [%]","activity at 10 µM ([1]; RAW264.7, 24 h) [%]","activity at 30 µM ([1]; RAW264.7, 24 h) [%]",Cell Viavility % (RAW264.7 cells; 1 μM),Cell Viavility % (RAW264.7 cells; 3 μM),Cell Viavility % (RAW264.7 cells; 10 μM),Cell Viavility % (RAW264.7 cells; 30 μM),Cytotoxicity at effective concentration (in words) (RAW264.7 cells; at 1 and 3 μM),Cytotoxicity (in words) (RAW264.7 cells; at higher concentrations),"activity at 1 µM [1, 2] [%]","activity at 3 µM [1, 3] [%]","activity at 10 µM [1, 4] [%]","activity at 30 µM [1, 5] [%]",Cytotoxicity (in words) (RAW264.7 cells; at 1–30 μM),Cytotoxicity at effective concentration (in words) (RAW264.7 cells; at 1–10 μM)
,"C=C(C)[C@@H]1CC[C@]2(CO)CC[C@]3(C)[C@H](CC[C@@H]4[C@@]5(C)CC[C@H](O)C(C)(C)[C@@H]5CC[C@]43C)[C@@H]12 [Compound 6, betulin]",exhibited NO inhibitory activities,17,83.4 ± 1.5,75 ± 3.2,65.4 ± 0.5,36.3 ± 0.6,(99.8 ± 0.1) %,(93.7 ± 1.1) %,(76.7 ± 0.7) %,(66.7 ± 1.2) %,did not exhibit cytotoxicity,some cytotoxicity,,,,,,
> 30,"CC(C)C1=CC(=O)C(C)CCC2(C)C(CCC3C4(C)CCC(=O)C(C)(C)C4CCC32C)C1=O (stereo not shown) [Compound 7, officinatrione]",exhibited NO inhibitory activities,,,,,,(98.3 ± 2.6) %,(103.0 ± 2.4) %,(99.7 ± 3.8) %,(99.8 ± 3.0) %,,,101 ± 1,101 ± 2.5,89.8 ± 1.1,66.8 ± 0.8,no cytotoxicity,
> 30,"CO[C@@H]1C=C2[C@@H]3CC(C)(C)CC[C@]3(C)CC[C@@]2(C)[C@]2(C)CC[C@H]3C(C)(C)C(=O)CC[C@]3(C)[C@@H]12 [Compound 8, 11α-methoxyolean-12-en-3-one]",exhibited NO inhibitory activities,,,,,,(99.9 ± 0.1) %,(100.4 ± 0.1) %,(100.5 ± 0.2) %,(103.0 ± 1.6) %,,,102.9 ± 0.7,105 ± 3.1,90.2 ± 7.1,64.1 ± 3.3,no cytotoxicity,
,"CC(C)=CCC[C@@H](C)[C@@H]1CC[C@]2(C)C3=CC[C@H]4C(C)(C)C(=O)CC[C@]4(C)[C@H]3CC[C@@]12C [Compound 9, eupha-7,24-dien-3-one]",,> 30,98.4 ± 3.9,100 ± 1.6,109 ± 2,108 ± 4.7,(99.3 ± 0.2) %,(98.8 ± 0.2) %,(99.1 ± 0.4) %,(99.9 ± 0.6) %,,,,,,,,
,C=C(C)C(=O)CC[C@@H](C)[C@@H]1CC[C@]2(C)C3=CC[C@H]4C(C)(C)[C@@H](OC(C)=O)CC[C@]4(C)[C@H]3CC[C@@]12C [Compound 10],exhibited NO inhibitory activities,18.4,93.8 ± 1.8,81.6 ± 3.7,67.5 ± 2.4,37 ± 1.8,(108.3 ± 4.7) %,(100.4 ± 0.2) %,(100.2 ± 0.1) %,(2.6 ± 0.4) %,,some cytotoxicity,,,,,,did not exhibit cytotoxicity
23.9,"CNC(=N)NCCC[C@H](N)C(=O)O [L-NMMA, N^G-monomethyl-L-arginine acetate, reference compound]",,,,,,,(101.5 ± 0.9) %,(101.9 ± 0.4) %,(98.5 ± 0.9) %,(109.4 ± 0.5) %,,,93.3 ± 2.2,91.4 ± 0.8,68.9 ± 4.5,43.1 ± 1.1,,
